Results taken from patent publication US20220218714A1, “METHOD OF TREATING CANCER” (Epizyme, Inc., priority 2013, published 2022).
“Also recorded” adds a separate entry of the source.

Columns and labels:
[1] = system: HS-SY-II cells; test: Adherent cell line 14-day long-term proliferation assay (CellTiter-Glo); format: cell-based, human
Procedure: (§1) 96-well plating for 7 day assay: For each adherent cell line, plated cells in a volume of 100 μL in 96-well plates, to be treated in triplicate, either in the evening (to treat with compound the following day) or in morning (to treat with compound in the evening), to allow cells to attach to plates before compound treatment.
(§2) 6-well plates to be split for 7-14 day assay: Plated 2mL of cells at the correct density in each well of the 6-well plate. Calculated the correct density from the 96-well plate growth curve by multiplying the 96-well density by 30. The factor 30 came from growth area of the 6-well plate divided by the growth area of the 96-well plate (9.5cm^2/0.32cm^2=29.7, rounded up to 30), which corresponds to 30-fold more surface area in a 6-well vs. a 96-well plate.
(§3) Day 0: Treated with compound or DMSO by removing media and adding back either […] (for 96-well plate) or 2 mL (for 6-well plate) media with the correct dilutions of compound/DMSO. Table 1 includes an example of 96-well plate map. Plates were incubated for 96 hours.
(§4) Read one 96-well plate with CellTiter-Glo®, for a Day 0 reading (media change not necessary for this plate).
(§5) Day 4: Read one 96-well plate with CellTiter-Glo® for a Day 4 reading (media change not necessary for this plate before reading). Replaced media with fresh media containing compound on Day 4 in 96-well plates and 6-well plates.
(§6) Day 7: read final 96-well plate with CellTiter-Glo®.
(§7) Counted individual wells of 6-well plates, and replated cells to initial plating density in 96-well plates, as described above.
(§8) Repeated steps for Days 0-7 for Days 7-14 of the proliferation assay.
(§9) Particularly, approximately 12 hours before compound treatment, HS-SY-II or SW982 cells were plated at the density of 24,000 cells/well and 7,500 cells/well, respectively in 6-well plates. On day 0, cells were treated with either DMSO or compound starting at 10 μmol/L and decreasing in fourfold dilutions. On day 7, the cells in 6-well plates were trypsinized, counted by TC10 automated cell counter (Bio-Rad, Richmond, Calif.) and replated at the density of 800 cells/well and 250 cells/well for HS-SY-II and SW982, respectively in 96-well plates in triplicate. The cells were allowed to adhere to the plate overnight, and treated with either DMSO or compound as on Day 0. On days 0, 7, 11, and 14, cell viability was determined by CellTiter-Glo® Luminescent Cell Viability Assay (Promega) with EnVision 2103 Multilabel Reader (Perkin-Elmer, Wellesley, Mass.). Compound/media was changed with new one on Day 4 and 11. The ratios of the measured values on Days 7, 11, and 14 to that of day 7 were used to plot proliferation from day 7 to day 14, and to calculate the IC50 values on Day 14. […]

[2] = system: SW982 cells; test: as above; format: cell-based, human
Procedure: as §1, §2, §3, §4, §5, §6, §7, §8, §9

[3] = system: HS-SY-II cells; test: Gene expression changes in vitro (RT-PCR, normalized to GAPDH); format: cell-based, human; details: HS-SY-II in vitro culture
Procedure: ATF3, EGR1, CDKN2A and GAPDH expression were analyzed by using the TaqMan Gene Expression Assays (Life technologies, 4331182) and the TaqMan Probes (Hs00231069_ml, Hs00152928_ml, Hs00233365_ml, and Hs99999905_ml, respectively).

[4] = system: PDX of synovial sarcoma tumors; test: Tumor volume in patient-derived xenografts (PDX) of synovial sarcoma, 35 days dosing; format: in vivo, athymic nude mice; details: two synovial sarcoma PDX; oral 125, 250 or 500/400 mg/kg for 35 days
Procedure: FIGS. 11A and 11C show mean in vivo tumor volumes for athymic nude mice bearing one of two different PDX of synovial sarcoma tumors. FIGS. 11B and 11D show percent survival for mice bearing a PDX. Mice were dosed with either vehicle (oral for 35 days), Compound A (oral: 125 mg/kg, 250 mg/kg, or 500/400 mg/kg for 35 days) or Doxorubicin (iv: 3 mg/kg, once a week for 3 weeks). FIGS. 11A and 11B show data from mice bearing PDX from high-grade spindle cell sarcoma. FIGS. 11C and 11D show data from mice bearing PDX.

Structure (SMILES): CCN(c1cc(-c2ccc(CN3CCOCC3)cc2)cc(C(=O)NCc2c(C)cc(C)[nH]c2=O)c1C)C1CCOCC1 [Compound A]
- sensitivity (cell proliferation / viability) [1]: high sensitivity; also recorded: highly sensitive
- sensitivity (cell proliferation / viability) [2]: did not; also recorded: not sensitive
- ATF3 and EGR1 expression [3]: upregulated
- CDKN2A expression [3]: Dose- and time-dependent CDKN2A upregulation
- tumor volume [4]: dose-related tumor volume decrease
